Laboratory results as given in ChEMBL document CHEMBL5696442, “Discovery of type II inhibitors of TGFβ-activated kinase 1 (TAK1) and mitogen-activated protein kinase kinase kinase kinase 2 (MAP4K2)” (J Med Chem, 2015).
Calls of active or inactive are those of the source. The calls are words filed in the database; no cut-off is given here.

Tests used:
[1] = Inhibition of PKD1/2 K2 labeling site in human Huh-7 cells at 1 uM by KiNativ Profiling analysis relative to control; settings: condition cancer
[2] = target: T1, Mitogen-activated protein kinase kinase kinase kinase 2 (Homo sapiens) (UniProt Q12851); assay: Inhibition of MAP4K2 Lys2 labeling site in human A-375 cells at 0.5 uM by KiNativ Profiling analysis relative to control; format: cell-based
T1 sequence (whole entry): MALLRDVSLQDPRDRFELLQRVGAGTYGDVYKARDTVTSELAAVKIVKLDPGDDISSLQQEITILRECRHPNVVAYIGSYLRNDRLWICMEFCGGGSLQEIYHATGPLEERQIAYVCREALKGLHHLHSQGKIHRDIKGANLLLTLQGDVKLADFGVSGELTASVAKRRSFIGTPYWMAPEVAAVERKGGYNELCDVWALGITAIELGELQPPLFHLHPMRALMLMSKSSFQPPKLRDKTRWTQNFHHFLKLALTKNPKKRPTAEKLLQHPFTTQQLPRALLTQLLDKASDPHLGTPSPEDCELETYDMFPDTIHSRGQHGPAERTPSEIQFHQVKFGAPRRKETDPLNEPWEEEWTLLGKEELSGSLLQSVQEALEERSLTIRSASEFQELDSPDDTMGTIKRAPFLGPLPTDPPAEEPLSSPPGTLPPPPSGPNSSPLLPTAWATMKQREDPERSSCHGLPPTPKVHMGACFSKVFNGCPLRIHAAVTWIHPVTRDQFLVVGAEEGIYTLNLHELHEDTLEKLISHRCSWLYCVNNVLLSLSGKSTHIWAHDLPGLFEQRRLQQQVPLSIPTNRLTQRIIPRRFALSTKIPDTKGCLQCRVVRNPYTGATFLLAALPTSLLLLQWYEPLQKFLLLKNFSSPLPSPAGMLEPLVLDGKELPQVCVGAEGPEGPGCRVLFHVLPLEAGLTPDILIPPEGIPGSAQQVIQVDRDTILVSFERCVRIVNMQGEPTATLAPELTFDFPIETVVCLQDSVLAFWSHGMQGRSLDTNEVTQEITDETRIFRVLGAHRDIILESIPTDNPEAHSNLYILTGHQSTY

[3] = target: PKC alpha and beta-2 (Homo sapiens) (UniProt P17252+P05771); assay: Inhibition of PKCalpha/beta K2 labeling site in human Huh-7 cells at 1 uM by KiNativ Profiling analysis relative to control; format: cell-based
[4] = target: Serine/threonine-protein kinase MRCK beta (Homo sapiens) (UniProt Q9Y5S2); assay: Inhibition of MRCKB (unknown origin) at 10 uM by Ambit Kinomescan binding assay
[5] = target: T2, DNA-PK/Ku70/Ku85 (Homo sapiens) (UniProt P78527+P12956+P13010); assay: Inhibition of DNAPK ATP labeling site harbouring KGGSWIQEINVAEKNWYPR in human Huh-7 cells at 1 uM by KiNativ Profiling analysis relative to control; format: cell-based
[6] = target: T2, DNA-PK/Ku70/Ku85 (Homo sapiens); assay: Inhibition of DNAPK ATP labeling site harbouring KGGSWIQEINVAEK in human Huh-7 cell lysate at 1 uM by KiNativ Profiling analysis relative to control; format: subcellular
[7] = target: Serine/threonine-protein kinase WNK1 (Homo sapiens) (UniProt Q9H4A3); assay: Inhibition of Wnk1 ACT labeling site in human Huh-7 cells at 1 uM by KiNativ Profiling analysis relative to control; format: cell-based
[8] = target: T3, Serine/threonine-protein kinase Sgk3 (Homo sapiens) (UniProt Q96BR1); assay: Inhibition of SGK3 Lys2 labeling site in human Huh-7 cell lysate at 1 uM by KiNativ Profiling analysis relative to control; format: subcellular
T3 sequence (whole entry): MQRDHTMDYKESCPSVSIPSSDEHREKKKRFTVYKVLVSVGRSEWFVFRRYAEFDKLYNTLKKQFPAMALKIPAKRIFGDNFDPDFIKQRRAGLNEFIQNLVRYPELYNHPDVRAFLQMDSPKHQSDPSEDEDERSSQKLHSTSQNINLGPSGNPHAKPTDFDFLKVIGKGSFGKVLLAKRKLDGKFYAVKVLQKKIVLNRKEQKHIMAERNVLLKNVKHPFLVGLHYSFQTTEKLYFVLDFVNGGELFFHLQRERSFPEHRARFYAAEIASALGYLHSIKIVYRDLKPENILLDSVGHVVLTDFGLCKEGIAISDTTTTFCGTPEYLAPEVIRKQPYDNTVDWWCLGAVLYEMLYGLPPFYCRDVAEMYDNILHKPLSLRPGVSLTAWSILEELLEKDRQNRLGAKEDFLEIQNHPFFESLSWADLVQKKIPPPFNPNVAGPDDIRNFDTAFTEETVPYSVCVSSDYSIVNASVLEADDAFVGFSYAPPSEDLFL

PKC alpha and beta-2 (Homo sapiens), sequence (P05771 whole entry, looked up): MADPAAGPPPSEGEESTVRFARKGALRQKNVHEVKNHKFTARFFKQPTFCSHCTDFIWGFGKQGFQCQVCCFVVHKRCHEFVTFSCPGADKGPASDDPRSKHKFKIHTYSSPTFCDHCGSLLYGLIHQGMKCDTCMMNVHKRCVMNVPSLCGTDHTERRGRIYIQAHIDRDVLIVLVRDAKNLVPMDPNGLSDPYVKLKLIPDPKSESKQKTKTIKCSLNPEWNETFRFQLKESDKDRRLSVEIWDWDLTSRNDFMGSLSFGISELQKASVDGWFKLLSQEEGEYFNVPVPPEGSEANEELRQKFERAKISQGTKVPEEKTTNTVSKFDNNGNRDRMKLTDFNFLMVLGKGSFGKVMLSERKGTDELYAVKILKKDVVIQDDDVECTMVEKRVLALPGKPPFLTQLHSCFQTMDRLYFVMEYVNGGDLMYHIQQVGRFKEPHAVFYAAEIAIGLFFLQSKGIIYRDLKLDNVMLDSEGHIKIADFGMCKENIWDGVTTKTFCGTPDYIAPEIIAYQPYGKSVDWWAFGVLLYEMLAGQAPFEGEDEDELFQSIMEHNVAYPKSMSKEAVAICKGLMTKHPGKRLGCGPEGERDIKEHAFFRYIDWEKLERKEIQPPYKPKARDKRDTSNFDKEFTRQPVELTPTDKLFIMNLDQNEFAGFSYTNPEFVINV
Serine/threonine-protein kinase WNK1 (Homo sapiens), sequence (Q9H4A3 whole entry, looked up): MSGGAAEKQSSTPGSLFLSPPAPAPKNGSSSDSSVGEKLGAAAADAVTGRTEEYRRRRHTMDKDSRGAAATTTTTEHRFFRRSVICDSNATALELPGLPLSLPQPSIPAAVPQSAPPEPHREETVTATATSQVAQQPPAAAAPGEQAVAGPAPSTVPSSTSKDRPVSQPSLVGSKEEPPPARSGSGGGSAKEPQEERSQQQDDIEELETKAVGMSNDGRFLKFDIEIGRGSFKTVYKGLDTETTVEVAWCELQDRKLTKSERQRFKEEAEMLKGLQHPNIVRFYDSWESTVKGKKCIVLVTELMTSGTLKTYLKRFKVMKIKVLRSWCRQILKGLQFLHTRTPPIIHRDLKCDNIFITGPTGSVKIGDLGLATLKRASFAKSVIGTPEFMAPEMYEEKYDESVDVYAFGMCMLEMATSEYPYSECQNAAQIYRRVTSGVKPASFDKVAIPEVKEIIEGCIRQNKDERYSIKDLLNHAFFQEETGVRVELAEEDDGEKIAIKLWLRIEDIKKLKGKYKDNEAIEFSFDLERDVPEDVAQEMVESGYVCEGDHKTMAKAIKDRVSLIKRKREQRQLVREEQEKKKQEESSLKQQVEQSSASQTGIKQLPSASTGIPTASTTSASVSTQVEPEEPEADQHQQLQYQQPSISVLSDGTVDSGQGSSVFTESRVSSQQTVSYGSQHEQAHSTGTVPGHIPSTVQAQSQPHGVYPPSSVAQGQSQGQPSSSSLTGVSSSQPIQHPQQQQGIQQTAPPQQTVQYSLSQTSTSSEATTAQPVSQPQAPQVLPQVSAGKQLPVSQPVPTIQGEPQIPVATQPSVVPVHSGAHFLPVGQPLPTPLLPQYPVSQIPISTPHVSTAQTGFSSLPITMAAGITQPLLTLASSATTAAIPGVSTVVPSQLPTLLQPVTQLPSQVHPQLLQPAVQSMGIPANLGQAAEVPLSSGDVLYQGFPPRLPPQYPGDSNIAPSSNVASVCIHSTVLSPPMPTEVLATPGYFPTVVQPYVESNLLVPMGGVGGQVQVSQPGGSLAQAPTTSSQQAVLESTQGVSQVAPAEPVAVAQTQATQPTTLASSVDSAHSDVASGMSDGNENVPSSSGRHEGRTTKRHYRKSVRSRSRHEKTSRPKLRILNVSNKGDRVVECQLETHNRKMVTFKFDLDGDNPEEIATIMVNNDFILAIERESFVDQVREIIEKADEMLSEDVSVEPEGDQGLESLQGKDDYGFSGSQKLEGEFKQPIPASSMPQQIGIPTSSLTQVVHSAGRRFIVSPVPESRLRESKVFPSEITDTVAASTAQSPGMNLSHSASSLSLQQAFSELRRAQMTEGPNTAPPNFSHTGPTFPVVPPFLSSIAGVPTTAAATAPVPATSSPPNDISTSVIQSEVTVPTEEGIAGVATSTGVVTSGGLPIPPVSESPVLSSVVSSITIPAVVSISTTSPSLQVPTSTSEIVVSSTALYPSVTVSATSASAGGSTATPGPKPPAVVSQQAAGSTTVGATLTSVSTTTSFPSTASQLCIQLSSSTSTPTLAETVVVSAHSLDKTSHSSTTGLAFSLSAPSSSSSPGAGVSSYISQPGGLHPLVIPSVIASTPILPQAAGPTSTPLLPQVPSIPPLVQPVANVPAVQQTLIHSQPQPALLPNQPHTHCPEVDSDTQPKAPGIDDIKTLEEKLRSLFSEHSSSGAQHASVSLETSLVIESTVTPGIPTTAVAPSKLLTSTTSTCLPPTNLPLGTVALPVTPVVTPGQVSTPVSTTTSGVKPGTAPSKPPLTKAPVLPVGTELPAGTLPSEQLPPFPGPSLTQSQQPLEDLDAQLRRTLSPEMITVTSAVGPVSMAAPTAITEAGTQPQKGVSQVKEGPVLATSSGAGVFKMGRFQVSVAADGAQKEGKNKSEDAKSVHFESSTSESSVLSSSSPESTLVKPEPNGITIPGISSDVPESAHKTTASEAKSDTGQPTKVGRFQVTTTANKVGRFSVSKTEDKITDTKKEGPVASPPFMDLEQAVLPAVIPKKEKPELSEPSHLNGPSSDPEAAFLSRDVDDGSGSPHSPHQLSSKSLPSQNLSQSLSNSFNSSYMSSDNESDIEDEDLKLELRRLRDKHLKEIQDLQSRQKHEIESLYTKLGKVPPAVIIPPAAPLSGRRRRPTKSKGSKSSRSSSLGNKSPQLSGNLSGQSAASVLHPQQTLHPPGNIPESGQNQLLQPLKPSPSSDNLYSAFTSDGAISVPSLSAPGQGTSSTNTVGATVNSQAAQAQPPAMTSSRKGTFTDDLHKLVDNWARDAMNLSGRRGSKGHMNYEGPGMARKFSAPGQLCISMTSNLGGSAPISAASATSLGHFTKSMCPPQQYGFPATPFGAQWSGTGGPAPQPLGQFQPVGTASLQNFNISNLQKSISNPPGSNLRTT

| Structure (SMILES) | inhibition at 1 µM [1] | inhibition [2] | inhibition [3] | inhibition [4] | inhibition [5] | inhibition [6] | inhibition [7] | inhibition [8] |
| --- | --- | --- | --- | --- | --- | --- | --- | --- |
| CCN1CCN(Cc2ccc(NC(=O)c3ccc(C)c(Oc4ccnc5[nH]ccc45)c3)cc2C(F)(F)F)CC1 | -9.2% | 91.1% | 8.8% | inactive |  |  |  |  |
| CNc1cc(Oc2cc(C(=O)Nc3cc(N4CCN(C)CC4)cc(C(F)(F)F)c3)ccc2C)ncn1 |  |  |  |  | 68.1% | -5.7% | 21.6% | 13.3% |
